Key:
Assay type in all cases: in vivo
[1] = tested on: Myzus persicae (Green peach aphid); experiment: Myzus persicae sucrose solution / Parafilm feeding test; conditions: 120 h, Application rate: 12.5ppm, sucrose solution, 5 days after infestation, read-out: mortality of Myzus persicae
From the text: (§1) The pesticidal/insecticidal properties of the compounds according to embodiments 1 or 2 can be illustrated via the following tests: Spodoptera littoralis (Egyptian cotton leaf worm) • Cotton leaf discs were placed onto agar in 24-well microtiter plates and sprayed with aqueous test solutions prepared from 10'000 ppm DMSO stock solutions. After drying the leaf discs were infested with five L1 larvae. […] Plutella xylostella (Diamond back moth): 24-well microtiter plates with artificial diet were treated with aqueous test solutions prepared from 10'000 ppm DMSO stock solutions by pipetting. After drying, the plates were infested with L2 larvae (10 to 15 per well). The samples were assessed for mortality and growth inhibition in comparison to untreated samples 5 days after infestation. […] Diabrotica balteata, (Corn root worm) • Maize sprouts placed onto an agar layer in 24-well microtiter plates were treated with aqueous test solutions prepared from 10'000 ppm DMSO stock solutions by spraying. After drying, the plates were infested with L2 larvae (6 to 10 per well). […] Thrips tabaci (Onion thrips): Sunflower leaf discs were placed on agar in 24-well microtiter plates and sprayed with aqueous test solutions prepared from 10'000 ppm DMSO stock solutions. After drying the leaf discs were infested with a thrips population of mixed ages. The samples were assessed for mortality 6 days after infestation. […] Tetranychus urticae (Two-spotted spider mite): Bean leaf discs on agar in 24-well microtiter plates were sprayed with aqueous test solutions prepared from 10'000 ppm DMSO stock solutions. After drying the leaf discs were infested with a mite population of mixed ages. The samples were assessed for mortality on mixed population (mobile stages) 8 days after infestation. […] Euschistus heros (Neotropical Brown Stink Bug): • Two weeks old soybean plants were sprayed in a turn table spray chamber with the diluted spray solutions. After drying 2 soybean seeds were added and plants were infested with 10 N2 nymphs of the neotropical brown stink bug Euschistus heros in plastic test boxes. The samples were assessed for mortality in comparison to untreated samples 5 days after infestation. • The following compounds gave at least 80% mortality of Euschistus heros at an application rate of 12.5 ppm: Compounds 3 , 4 , 8 , 39 , 43 , 44 , 46 , 75 , 76 , 77 , 78 , 79 , 80 , 81 , 82 , 88 , 90 , 93 and 95 . Myzus persicae (Green peach aphid): Sunflower leaf discs were placed on agar in a 24-well microtiter plate and sprayed with test solutions at an application rate of 200 ppm. After drying, the leaf discs were infested with an aphid population of mixed ages. After an incubation period of 6 DAT, samples were checked for mortality. The following compounds gave at least 50% mortality of Myzus persicae: Compounds 3 , 4 , 8 , 43 , 44 , 75 , 76 , 77 , 80 , 81 , 90 and 92 . Myzus persicae (Green peach aphid): • Test compounds were applied by pipette into 24 well plates and mixed with Sucrose solution. Application rate: 12.5ppm. The plates were closed with a stretched parafilm. A plastic stencil with 24 holes is placed onto the plate and infested pea seedlings were placed directly on the Parafilm. The infested plate is closed with a gel blotting paper and another plastic stencil and then turned upside down. […]

[2] = tested on: Euschistus heros (Neotropical Brown Stink Bug); experiment: Euschistus heros soybean plant spray test, N2 nymphs; conditions: 120 h, application rate of 12.5 ppm, 5 days after infestation, N2 nymphs, read-out: mortality of Euschistus heros
From the text: as §1

[3] = tested on: Spodoptera littoralis (Egyptian cotton leaf worm); experiment: Spodoptera littoralis cotton leaf disc spray test, L1 larvae; conditions: foliar, 72 h, application rate of 200 ppm, 3 days after infestation, L1 larvae, read-out: mortality
From the text: as §1

[4] = tested on: Plutella xylostella (Diamond back moth); experiment: Plutella xylostella artificial diet test, L2 larvae; conditions: 120 h, application rate of 200 ppm, mortality and growth inhibition 5 days after infestation
From the text: as §1

[5] = tested on: Diabrotica balteata, (Corn root worm); experiment: Diabrotica balteata maize sprout spray test, L2 larvae; conditions: 96 h, application rate of 200 ppm, 4 days after infestation, L2 larvae, read-out: mortality
From the text: as §1

[6] = tested on: Thrips tabaci (Onion thrips); experiment: Thrips tabaci sunflower leaf disc spray test; conditions: foliar, 144 h, application rate of 200 ppm, mortality 6 days after infestation, mixed ages
From the text: as §1

[7] = tested on: Tetranychus urticae (Two-spotted spider mite); experiment: Tetranychus urticae bean leaf disc spray test; conditions: foliar, 192 h, application rate of 200 ppm, mortality on mixed population (mobile stages) 8 days after infestation
From the text: as §1

Cn1nc(C(F)(F)C(F)(F)F)c(C(F)(F)F)c1-c1cnn(-c2ccc(Cl)c(C(=O)NC3(C#N)CC3)c2)c1 [Compound 38, 2-chloro-N-(1-cyanocyclopropyl)-5-[4-[2-methyl-5-(1,1,2,2,2-pentafluoroethyl)-4-(trifluoromethyl)pyrazol-3-yl]pyrazol-1 - yl]benzamide]
≥ 80%: mortality at 12.5 ppm [1]

Cn1nc(C(F)(F)C(F)(F)F)c(C(F)(F)F)c1-c1cc(-c2ccc(Cl)c(C(=O)NC3(C#N)CC3)c2)ns1 [Compound 46, 2-chloro-N-(1-cyanocyclopropyl)-5-[5-[2-methyl-5-(1,1,2,2,2-pentafluoroethyl)-4-(trifluoromethyl)pyrazol-3-yl]isothiazol-3-yl]benzamide]
≥ 80%: mortality at 12.5 ppm [2] | mortality at 200 ppm [3]

Cn1nc(C(F)(F)C(F)(F)F)c(C(F)(F)F)c1-c1cc(-c2ccc(Cl)c(C(=O)NC3(C#N)CC3)c2)[nH]n1 [Compound 72, 2-chloro-N-(1-cyanocyclopropyl)-5-[3-[2-methyl-5-(1,1,2,2,2-pentafluoroethyl)-4-(trifluoromethyl)pyrazol-3-yl]-1H-pyrazol-5-yl]benzamide]
≥ 80%: pest or weed control at 200 ppm [4] | mortality at 12.5 ppm [1] | mortality at 200 ppm [5] | mortality at 200 ppm [3]

Cn1nc(C(F)(F)C(F)(F)F)c(C(F)(F)F)c1-c1cc(-c2ccc(Cl)c(C(=O)NC3CCOC3=O)c2)on1 (stereo not drawn) [Compound 78, 2-chloro-5-[3-[2-methyl-5-(1,1,2,2,2-pentafluoroethyl)-4-(trifluoromethyl)pyrazol-3-yl]isoxazol-5-yl]-N-(2-oxotetrahydrofuran-3-yl)benzamide]
≥ 80%: pest or weed control at 200 ppm [6] | mortality at 200 ppm [5] | mortality at 12.5 ppm [2] | pest or weed control at 200 ppm [7] | mortality at 200 ppm [3]

C#CCNC(=O)c1cc(-c2cc(-c3c(C(F)(F)F)c(C(F)(F)C(F)(F)F)nn3C)no2)ccc1Cl [Compound 79, 2-chloro-5-[3-[2-methyl-5-(1,1,2,2,2-pentafluoroethyl)-4-(trifluoromethyl)pyrazol-3-yl]isoxazol-5-yl]-N-prop-2-ynyl-benzamide]
≥ 80%: pest or weed control at 200 ppm [6] | pest or weed control at 200 ppm [4] | mortality at 200 ppm [5] | mortality at 12.5 ppm [2] | pest or weed control at 200 ppm [7] | mortality at 200 ppm [3]

C=C(Cl)CNC(=O)c1cc(-c2cc(-c3c(C(F)(F)F)c(C(F)(F)C(F)(F)F)nn3C)no2)ccc1Cl [Compound 82, 2-chloro-N-(2-chloroallyl)-5-[3-[2-methyl-5-(1,1,2,2,2-pentafluoroethyl)-4-(trifluoromethyl)pyrazol-3-yl]isoxazol-5-yl]benzamide]
≥ 80%: pest or weed control at 200 ppm [6] | pest or weed control at 200 ppm [4] | mortality at 200 ppm [5] | mortality at 12.5 ppm [2] | mortality at 200 ppm [3]

CC(C)CNC(=O)c1cc(-c2cc(-c3c(C(F)(F)F)c(C(F)(F)C(F)(F)F)nn3C)no2)ccc1Cl [Compound 87, 2-chloro-N-isobutyl-5-[3-[2-methyl-5-(1,1,2,2,2-pentafluoroethyl)-4-(trifluoromethyl)pyrazol-3-yl]isoxazol-5-yl]benzamide]
≥ 80%: pest or weed control at 200 ppm [6] | pest or weed control at 200 ppm [4] | mortality at 200 ppm [5] | pest or weed control at 200 ppm [7] | mortality at 200 ppm [3]

Cn1nc(C(F)(F)C(F)(F)F)c(C(F)(F)F)c1-c1cc(-c2ccc(Cl)c(C(=O)NC3(C(F)(F)F)CC3)c2)on1 [Compound 88, 2-chloro-5-[3-[2-methyl-5-(1,1,2,2,2-pentafluoroethyl)-4-(trifluoromethyl)pyrazol-3-yl]isoxazol-5-yl]-N-[1-(trifluoromethyl)cyclopropyl]benzamide]
≥ 80%: pest or weed control at 200 ppm [6] | pest or weed control at 200 ppm [4] | mortality at 200 ppm [5] | mortality at 12.5 ppm [2] | mortality at 200 ppm [3]

Cn1nc(C(F)(F)C(F)(F)F)c(C(F)(F)F)c1-c1cc(-c2ccc(Cl)c(C(=O)Nc3ccncc3)c2)on1 [Compound 89, 2-chloro-5-[3-[2-methyl-5-(1,1,2,2,2-pentafluoroethyl)-4-(trifluoromethyl)pyrazol-3-yl]isoxazol-5-yl]-N-(4-pyridyl)benzamide]
≥ 80%: pest or weed control at 200 ppm [6] | pest or weed control at 200 ppm [4] | mortality at 200 ppm [5] | pest or weed control at 200 ppm [7] | mortality at 200 ppm [3]

Cn1nc(C(F)(F)C(F)(F)F)c(C(F)(F)F)c1-c1cc(-c2ccc(Cl)c(C(N)=O)c2)on1 [Compound 94, 2-chloro-5-[3-[2-methyl-5-(1,1,2,2,2-pentafluoroethyl)-4-(trifluoromethyl)pyrazol-3-yl]isoxazol-5-yl]benzamide]
≥ 80%: pest or weed control at 200 ppm [6] | pest or weed control at 200 ppm [4] | mortality at 200 ppm [5] | pest or weed control at 200 ppm [7] | mortality at 200 ppm [3]

Cn1nc(C(F)(F)C(F)(F)F)c(C(F)(F)F)c1-c1cc(-c2ccc(Cl)c(C(=O)NC3(c4ccccn4)CC3)c2)on1 [Compound 95, 2-chloro-5-[3-[2-methyl-5-(1,1,2,2,2-pentafluoroethyl)-4-(trifluoromethyl)pyrazol-3-yl]isoxazol-5-yl]-N-[1-(2-pyridyl)cyclopropyl]benzamide]
≥ 80%: pest or weed control at 200 ppm [6] | pest or weed control at 200 ppm [4] | mortality at 200 ppm [5] | mortality at 12.5 ppm [2] | mortality at 200 ppm [3]

Cn1nc(C(F)(F)C(F)(F)F)c(C(F)(F)F)c1-c1cc(-c2ccc(Cl)c(C(=O)NCC(F)F)c2)on1 [Compound 97, 2-chloro-N-(2,2-difluoroethyl)-5-[3-[2-methyl-5-(1,1,2,2,2-pentafluoroethyl)-4-(trifluoromethyl)pyrazol-3-yl]isoxazol-5-yl]benzamide]
≥ 80%: pest or weed control at 200 ppm [4] | mortality at 12.5 ppm [1] | mortality at 200 ppm [5] | mortality at 200 ppm [3]

C=C(C)CNC(=O)c1cc(-c2cc(-c3c(C(F)(F)F)c(C(F)(F)C(F)(F)F)nn3C)no2)ccc1Cl [Compound 98, 2-chloro-N-(2-methylallyl)-5-[3-[2-methyl-5-(1,1,2,2,2-pentafluoroethyl)-4-(trifluoromethyl)pyrazol-3-yl]isoxazol-5-yl]benzamide]
≥ 80%: pest or weed control at 200 ppm [6] | pest or weed control at 200 ppm [4] | mortality at 200 ppm [5] | pest or weed control at 200 ppm [7] | mortality at 200 ppm [3]
